Experimental data: patent EP4600367A1, “ENZYMATIC CLEAVAGE OF N-ALKYL COMPOUNDS AFTER CHEMOLYSIS OF POLYURETHANES” (Covestro Deutschland AG, priority 2024, dated 2025)

Columns and labels:
AaeUPO = molecular target: T1, AaeUPO (Cyclocybe aegerita, UniProt B9W4V6); assay: Enzymatic N-dealkylation assay UPOs with H2O2, HPLC; format: biochemical, Agrocybe aegerita; conditions: for enzymatischer Abbau von Modell-N-Alkylverbindungen: AaeUPO: 4 mM substrate, Tricine buffer 100 mM, 30 °C, at least 4 h, H2O2 added every 30 min
T1 construct: purchased Aminoverse B.V
T1 sequence (B9W4V6 44-371): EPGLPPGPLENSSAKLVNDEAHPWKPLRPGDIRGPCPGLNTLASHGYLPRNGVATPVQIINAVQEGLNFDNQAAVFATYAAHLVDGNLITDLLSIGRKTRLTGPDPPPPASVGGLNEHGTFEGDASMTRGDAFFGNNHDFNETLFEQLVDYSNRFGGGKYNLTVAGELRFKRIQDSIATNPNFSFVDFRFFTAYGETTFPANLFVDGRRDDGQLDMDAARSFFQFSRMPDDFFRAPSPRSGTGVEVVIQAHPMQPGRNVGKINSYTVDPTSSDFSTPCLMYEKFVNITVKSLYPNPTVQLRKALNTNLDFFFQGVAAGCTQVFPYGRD
Procedure: Die vier Enzyme UPO #13, UPO #13M1, UPO #13M3 und UPO #13M5 wurden von Aminoverse B.V. bereitgestellt.
Für UPOs erfolgte die Reaktion im 300 µL Maßstab in Tricine Puffer (100 mM) bei 30 °C für mindestens 4 h und 200 rpm. […] Der Assay wurde mit Zugabe des Co-Substrats H2O2 (1,5 µL einer 200 mM H2O2-Lösung) gestartet, welches alle 30 min wiederholt zugegeben wurde (final 12 µL H2O2).
(§1) Als Negativkontrollen wurden für alle Substrate und Bedingungen Assays ohne Enzymlösung durchgeführt. Alle Assays erfolgten mindestens in Triplikaten.
(§2) Zum Abstoppen der enzymatischen Reaktion und Extraktion erfolgte die Verdünnung des Reaktionsansatzes in gleichen Teilen Acetonitril. Die Proben wurden filtriert und die Produktfreisetzung per HPLC analysiert (ZORBAX Eclipse C18 Säule (Partikelgröße von […], 4,6 × 75 mm (Agilent Technologies, Santa Clara, USA), 40 °C, Laufmittel A: Acetonitril mit 5 % Reinstwasser, Laufmittel B: 10 mM Natriumphosphat-Puffer pH 7,0 mit 5 % ACN, Fluss: 1 mL/min). Das Profil der HPLC-Methode ist in Tabelle 3 gezeigt. Tabelle 4 zeigt die Elutionszeiten der Komponenten mit dieser Messmethode. Tabelle 3: Profil der HPLC-Methode.

ChaO YT02 = assay: Enzymatic N-dealkylation assay MAOs/CAOs, HPLC product release; format: biochemical, Acinetobacter sp. YT-02; conditions: for enzymatischer Abbau von Modell-N-Alkylverbindungen: ChaO YT02: 10 mM substrate, phosphate buffer pH 7,5, 37 °C, at least 48 h
Procedure: (§3) Die Expression der in Tabelle 1 gezeigten MAOs und CAOs erfolgte im Stamm E. coli BL21(DE3). Der Zellaufschluss erfolgte durch Ultraschallbehandlung und die Enzymreinigung über einen N-terminalen His-tag und das IMAC-System (Nickel-NTA) nach Angaben des Herstellers (Fisher Scientific GmbH) mit anschließender Umpufferung in einen Lagerpuffer (25 mM Tris/HCl pH 7.8, 1 mM dithiothreitol (DTT), 1 mM PMSF, 300 mM NaCl) über PD-10-Säulen nach Angaben des Herstellers (cytiva). Die erfolgreiche Expression und Aufreinigung wurde über ein SDS-PAGE kontrolliert. Tabelle 1: Untersuchte Enzyme im Rahmen der enzymatischen N-Dealkylierung.
(§4) Für MAOs/CAOs erfolgte die Reaktion im 200 µL Maßstab bei 37 °C für mindestens 48 h und 200 rpm. Dazu wurden 100 µL der oben beschriebenen Enzympräparate in Phosphatpuffer (bevorzugt zwischen 50 bis 200 mM, pH 7,5) mit 10 mM eines der sechs in Tabelle 2 gelisteten Substrate versetzt. Als Co-Solvenz für das Substrat wurde Dimethylsulfoxid eingesetzt (maximal 5 % (w/w) der finalen Umsetzungsreaktion). Um eine ausreichende Sauerstoffversorgung über den Kopfraum des Reaktionsansatzes zu gewährleisten, wurden Reaktionsgefäße oder Mikrotiterplatten in eckiger Ausführungsform und 10-fachem Gesamtvolumen bevorzugt.
as §1, §2

UPO #13M5 = assay: Enzymatic N-dealkylation assay UPOs with H2O2, HPLC; format: biochemical; conditions: for enzymatischer Abbau von Modell-N-Alkylverbindungen: UPO #13M5: 4 mM substrate, Tricine buffer 100 mM, 30 °C, at least 4 h, H2O2 added every 30 min
Procedure: (§5) Die vier Enzyme UPO #13, UPO #13M1, UPO #13M3 und UPO #13M5 wurden von Aminoverse B.V. bereitgestellt. Zusätzlich wurde das Wildtyp AaeUPO aus der Basidiomycete Agrocybe aegerita (Ullrich, R., et al. (2004). "Novel haloperoxidase from the agaric basidiomycete Agrocybe aegerita oxidizes aryl alcohols and aldehydes." Appl Environ Microbiol 70(8): 4575-4581) von Aminoverse B.V. erworben.
(§6) Für UPOs erfolgte die Reaktion im 300 µL Maßstab in Tricine Puffer (100 mM) bei 30 °C für mindestens 4 h und 200 rpm. Dazu wurden die von Aminoverse B.V. bereitgestellten Enzympräparate in dH2O gelöst (ca. 0,575 mg/mL) und 30 µL der Enzymlösung in den Assay eingesetzt, welcher mit 4 mM eines der sechs in Tabelle 2 gelisteten Substrate versetzt war. Der Assay wurde mit Zugabe des Co-Substrats H2O2 (1,5 µL einer 200 mM H2O2-Lösung) gestartet, welches alle 30 min wiederholt zugegeben wurde (final 12 µL H2O2).
as §1, §2

UPO #13M3 = assay: as above; format: biochemical; conditions: for enzymatischer Abbau von Modell-N-Alkylverbindungen: UPO #13M3: 4 mM substrate, Tricine buffer 100 mM, 30 °C, at least 4 h, H2O2 added every 30 min
Procedure: as §5, §6, §1, §2

UPO #13 = assay: as above; format: biochemical; conditions: for enzymatischer Abbau von Modell-N-Alkylverbindungen: UPO #13: 4 mM substrate, Tricine buffer 100 mM, 30 °C, at least 4 h, H2O2 added every 30 min
Procedure: as §5, §6, §1, §2

UPO #13M1 = assay: as above; format: biochemical; conditions: for enzymatischer Abbau von Modell-N-Alkylverbindungen: UPO #13M1: 4 mM substrate, Tricine buffer 100 mM, 30 °C, at least 4 h, H2O2 added every 30 min
Procedure: as §5, §6, §1, §2

ChaoA L225A = assay: Enzymatic N-dealkylation assay MAOs/CAOs, HPLC product release; format: biochemical, Brevibacterium oxydans strain IH-35A; conditions: for enzymatischer Abbau von Modell-N-Alkylverbindungen: ChaoA L225A: 10 mM substrate, phosphate buffer pH 7,5, 37 °C, at least 48 h; for Aktivität / Freisetzung des Zielprodukts: ChaoA L225A
Procedure: as §3, §4, §1, §2

MaoN5 = molecular target: T2, MaoN5 (Aspergillus niger, UniProt P46882, D385S/I246M/N336S/T384N); assay: as above; format: biochemical; conditions: for enzymatischer Abbau von Modell-N-Alkylverbindungen: MaoN5: 10 mM substrate, phosphate buffer pH 7,5, 37 °C, at least 48 h; for Aktivität / Freisetzung des Zielprodukts: MaoN5
T2 construct: His-tag (N); made in house; host or cells: Escherichia coli BL21(DE3) pET21a
Procedure: as §3, §4, §1, §2

MaoN = molecular target: T3, MaoN (Aspergillus niger, UniProt P46882); assay: as above; format: biochemical; conditions: 10 mM substrate, phosphate buffer pH 7,5, 37 °C, at least 48 h
T3 construct: His-tag (N); made in house; host or cells: Escherichia coli BL21(DE3) pET21a
Procedure: as §3, §4, §1, §2

MAOs/CAOs = assay: Enzymatic N-dealkylation assay, statement for the MAOs/CAOs as a group; format: biochemical
Procedure: as §3, §4, §1, §2

[1] = AaeUPO, mol% relative to substrate used
[2] = UPO #13M5, mol% relative to substrate used
[3] = UPO #13M3, mol% relative to substrate used
[4] = UPO #13, mol% relative to substrate used
[5] = UPO #13M1, mol% relative to substrate used

T2 sequence (P46882 whole entry I246M/N336S/T384N/D385S): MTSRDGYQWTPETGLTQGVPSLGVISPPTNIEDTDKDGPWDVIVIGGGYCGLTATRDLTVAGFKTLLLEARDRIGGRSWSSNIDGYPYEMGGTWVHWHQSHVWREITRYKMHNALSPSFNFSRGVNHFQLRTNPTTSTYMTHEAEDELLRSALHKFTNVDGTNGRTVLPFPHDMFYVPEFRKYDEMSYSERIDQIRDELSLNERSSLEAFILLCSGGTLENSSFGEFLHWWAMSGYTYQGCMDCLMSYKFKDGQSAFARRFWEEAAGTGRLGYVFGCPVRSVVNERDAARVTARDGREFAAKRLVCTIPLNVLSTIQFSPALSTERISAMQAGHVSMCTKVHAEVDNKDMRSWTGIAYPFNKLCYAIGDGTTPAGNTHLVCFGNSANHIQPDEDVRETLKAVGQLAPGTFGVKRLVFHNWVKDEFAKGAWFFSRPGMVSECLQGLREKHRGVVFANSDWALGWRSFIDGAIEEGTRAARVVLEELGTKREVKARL
T3 sequence (P46882 whole entry): as the sequence (P46882 whole entry I246M/N336S/T384N/D385S) above, with M246I, S336N, N384T, S385D counted along it

Compound | 4,4'-MDA-Freisetzung (AaeUPO; [1]) | enzymatischer Abbau von Modell-N-Alkylverbindungen: ChaO YT02 (ChaO YT02) | 4,4'-MDA-Freisetzung (UPO #13M5; [2]) | 4,4'-MDA-Freisetzung (UPO #13M3; [3]) | 4,4'-MDA-Freisetzung (UPO #13; [4]) | 4,4'-MDA-Freisetzung (UPO #13M1; [5]) | enzymatischer Abbau von Modell-N-Alkylverbindungen: ChaoA L225A (ChaoA L225A) | Aktivität / Freisetzung des Zielprodukts (ChaoA L225A) | enzymatischer Abbau von Modell-N-Alkylverbindungen: MaoN5 (MaoN5) | Aktivität / Freisetzung des Zielprodukts (MaoN5) | enzymatischer Abbau von Modell-N-Alkylverbindungen: MaoN (MaoN) | enzymatischer Abbau von Modell-N-Alkylverbindungen: AaeUPO (AaeUPO) | enzymatischer Abbau von Modell-N-Alkylverbindungen: UPO #13M5 (UPO #13M5) | enzymatischer Abbau von Modell-N-Alkylverbindungen: UPO #13M3 (UPO #13M3) | enzymatischer Abbau von Modell-N-Alkylverbindungen: UPO #13 (UPO #13) | enzymatischer Abbau von Modell-N-Alkylverbindungen: UPO #13M1 (UPO #13M1) | Aktivität (MAOs/CAOs) | also measured
CNc1ccc(Cc2ccc(NC)cc2)cc1 [N,N'-Dimethyl-4,4'-MDA] | 0,7 mol% | nein | 2,2 mol% | 2,8 mol% | 2,1 mol% | 2,5 mol% | schwach | geringerer Aktivität | schwach | geringerer Aktivität | nein |  |  |  |  |  |  | Abbau des eingesetzten Substrates (UPO #13M5; UPO #13M5, substrate no longer detected in HPLC chromatograms): vollständig abgebaut; Abbau des eingesetzten Substrates (UPO #13M3; UPO #13M3, substrate no longer detected in HPLC chromatograms): vollständig abgebaut; Abbau des eingesetzten Substrates (UPO #13; UPO #13, substrate no longer detected in HPLC chromatograms): vollständig abgebaut
CCNc1ccccc1 [N-Ethylanilin] |  | schwach |  |  |  |  |  |  | schwach |  |  | deg | deg | deg | deg | deg | spezifische Aktivität | 
CCN(C)c1ccccc1 [N-Ethyl-N-Methylanilin] |  | nein |  |  |  |  | nein |  | nein |  | nein | nein | nein |  |  |  | keine Aktivität | Anilin als Zielprodukt (UPO #13M3; UPO #13M3): nachgewiesen; Anilin als Zielprodukt (UPO #13; UPO #13): nachgewiesen; Anilin als Zielprodukt (UPO #13M1; UPO #13M1): nachgewiesen
CCNc1ccc(Cc2ccc(NCC)cc2)cc1 [N,N'-Diethyl-4,4'-MDA] | 0 mol% | nein | 2,8 mol% | 2,9 mol% | 2,6 mol% | 2,5 mol% | schwach | nur sehr schwache 4,4'-MDA-Freisetzung | schwach | nur sehr schwache 4,4'-MDA-Freisetzung | nein | nein | ja/deg^1 | ja/deg^1 | ja/deg^1 | ja/deg^1 |  | 
CN(C)c1ccc(Cc2ccc(N(C)C)cc2)cc1 [N,N,N',N'-Tetramethyl-4,4'-MDA, N,N,N',N'-Tetramethyl-4,4'-diaminodiphenylmethan] | 0,1 mol% | nein | 1,3 mol% | 1,4 mol% | 1,1 mol% | 1,1 mol% | nein |  | nein |  | nein | nein |  |  |  |  | keine reproduzierbare Aktivität | N,N'-Dimethyl-4,4'-MDA - Zwischenprodukt der enzymatischen Reaktion - nachgewiesen (AaeUPO; [1]): 0 mol%; N,N'-Dimethyl-4,4'-MDA - Zwischenprodukt der enzymatischen Reaktion - nachgewiesen (UPO #13M5; [2]): 27,9 mol%; N,N'-Dimethyl-4,4'-MDA - Zwischenprodukt der enzymatischen Reaktion - nachgewiesen (UPO #13M3; [3]): 27,5 mol%; N,N'-Dimethyl-4,4'-MDA - Zwischenprodukt der enzymatischen Reaktion - nachgewiesen (UPO #13; [4]): 25,7 mol%; N,N'-Dimethyl-4,4'-MDA - Zwischenprodukt der enzymatischen Reaktion - nachgewiesen (UPO #13M1; [5]): 31,8 mol%
c1ccc(CNc2ccccc2)cc1 [N-Benzylanilin] |  | schwach |  |  |  |  | schwach | spezifische Aktivität | nein |  | nein | deg | deg | deg | deg | deg |  | Aktivität / Freisetzung des Zielprodukts (ChaO YT02; ChaO YT02): spezifische Aktivität
